US6372752B1 (priority 2000, dated 2002)
Counter-ions that a name gives are not always drawn. Like-named read-outs stand apart in the source and are kept apart here.

What was measured:
InhA = InhA (Mycobacterium tuberculosis, UniProt P9WGR1); test: InhA inhibition assay (NADH consumption, absorbance at 340); format: biochemical; settings: for inhibition at 40 µM: 40 μM compound, read-out: Percentage Inhibition (@ 40 μM)
m. Embryo = test: Cell Tox (m. Embryo); settings: m. Embryo cells
h. Kidney = test: Cell Tox (h. Kidney); settings: h. Kidney cells
[1] = test system: Bacillus Calmet-Guerin (BCG), Pasteur strain, of Mycobacterium bovis; test: microbe, parasite or virus in culture; format: cell-based; settings: Mycobacterium tuberculosis variant bovis BCG
h. Lung = test: Cell Tox (h. Lung); settings: h. Lung cells
[2] = read-out: IC50's for BCG growth

Chain of InhA (P9WGR1 whole entry, looked up): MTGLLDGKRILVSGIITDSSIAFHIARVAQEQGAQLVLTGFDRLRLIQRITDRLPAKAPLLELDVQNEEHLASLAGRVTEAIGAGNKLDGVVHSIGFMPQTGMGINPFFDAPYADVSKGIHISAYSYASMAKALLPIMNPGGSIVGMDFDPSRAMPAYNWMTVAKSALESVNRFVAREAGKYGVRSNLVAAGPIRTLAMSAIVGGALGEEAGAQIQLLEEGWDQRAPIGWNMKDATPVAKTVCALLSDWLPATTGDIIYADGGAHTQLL

Compound: O=C(c1ccc2[nH]ccc2c1)N1CCN(c2cccc(Cl)c2)CC1 [Compound 58]
- IC50 (InhA): 1.21 µM

Compound: O=C(c1ccc2[nH]ccc2c1)N1CCN(c2cccc(C(F)(F)F)c2)CC1 [Compound 59]
- IC50 (InhA): 1.89 µM

Compound: O=C(Cc1ccccc1F)NCCc1ccc(Cl)cc1 [Compound 1, N-[2-(4-Chlorophenyl)-ethyl]-2-(2-fluoro-phenyl)acetamide]
- inhibition at 40 µM (InhA; Table 2): 82%

Compound: CCCC(=O)C1(c2ccccc2)CCN(C(=O)c2ccc3[nH]ccc3c2)CC1 [Compound 4, 1-[1-(1H-Indole-5-carbonyl)-4-phenyl-piperidin-4-yl]-butan-1-one]
- Cell Tox (m. Embryo) (m. Embryo): 46 to 50 µM
- Cell Tox (h. Kidney) (h. Kidney): 23 to 48 µM
- IC50 ([1]; read-out: BCG Growth IC-50): > 25 µM
- Cell Tox (h. Lung) (h. Lung): 33 to 50 µM
- IC50 (InhA): 0.23 µM

Compound: O=C(c1ccc2[nH]ccc2c1)N1CCN(C2c3ccccc3-c3ccccc32)CC1 [Compound 70]
- Cell Tox (m. Embryo) (m. Embryo): 46 to 52 µM
- Cell Tox (h. Kidney) (h. Kidney): 35 to 44 µM
- IC50 ([1]; read-out: BCG Growth IC-50): 8.3 µM
- Cell Tox (h. Lung) (h. Lung): 24 to 48 µM

Compound: O=C(c1ccc2[nH]ccc2c1)N1CCN(C2c3ccccc3-c3ccc([N+](=O)[O-])cc32)CC1 (stereo not shown) [Compound 71]
- Cell Tox (m. Embryo) (m. Embryo): 23 µM
- Cell Tox (h. Kidney) (h. Kidney): 28 µM
- IC50 ([1]; read-out: BCG Growth IC-50): 8.3 µM
- Cell Tox (h. Lung) (h. Lung): 37 µM
- IC50 (InhA; Table 9, read-out: InhA IC-50): 0.12 µM

Compound: O=C(c1ccc2[nH]ccc2c1)N1CCN(C2c3ccccc3-c3cc([N+](=O)[O-])ccc32)CC1 (stereo not shown) [Compound 72]
- Cell Tox (m. Embryo) (m. Embryo): 23 µM
- Cell Tox (h. Kidney) (h. Kidney): 29 µM
- IC50 ([1]; read-out: BCG Growth IC-50): 2.8 µM
- Cell Tox (h. Lung) (h. Lung): 34 µM
- IC50 (InhA; Table 9, read-out: InhA IC-50): 0.13 µM

Compound: Cc1ccc(Cl)cc1N1CCN(C(=O)c2ccc3[nH]ccc3c2)CC1 [Compound 57]
- IC50 (InhA): 1.04 µM

Compound: NNC(=O)c1ccncc1 [isoniazid, isonicotinic acid hydrazide]
- IC50 ([1]; read-out: BCG Growth IC-50): 3 µM
- IC50 [1, 2]: 3 µM

Compound: CCCCCCCCCCCCCCCC(=O)SCCNC(=O)CCNC(=O)[C@H](O)C(C)(C)COP(=O)(O)OP(=O)(O)OC[C@H]1O[C@@H](n2cnc3c(N)ncnc32)[C@H](O)[C@@H]1OP(=O)(O)O [palmitoyl-CoA, reference compound]
- inhibition at 375 µM (InhA; at 375 uM, read-out: inhibition by internal standard): ~40%

Compound: CC[C@@H](CO)NCCN[C@@H](CC)CO [ethambutol, ethambutol dihydrochloride]
- IC50 ([1]; read-out: BCG Growth IC-50): 10 µM
- IC50 [1, 2]: 10 µM

Compound: CO[C@H]1/C=C/O[C@@]2(C)Oc3c(C)c(O)c4c(O)c(c(/C=N/N5CCN(C)CC5)c(O)c4c3C2=O)NC(=O)/C(C)=C\C=C\[C@H](C)[C@H](O)[C@@H](C)[C@@H](O)[C@@H](C)[C@H](OC(C)=O)[C@@H]1C [rifampicin]
- IC50 ([1]; read-out: BCG Growth IC-50): 0.01 µM
- IC50 [1, 2]: 0.01 µM

Compound: O=C(c1ccc2[nH]ccc2c1)N1CCN(c2ccc(Cl)cc2)CC1 [Compound 56]
- IC50 (InhA): 4.2 µM

Compound: O=C(c1ccc2[nH]ccc2c1)N1CCN(C2c3cc(Br)ccc3-c3ccc(Br)cc32)CC1 [Compound 73]
- IC50 ([1]; read-out: BCG Growth IC-50): 6.2 µM
- IC50 (InhA; Table 9, read-out: InhA IC-50): 0.12 µM

Compound: O=C(c1ccc(Cl)cc1)C1CCN(C(=O)c2ccc3[nH]ccc3c2)CC1 [Compound 5, [4-(4-Chlorobenzoyl)-piperidin-1-yl]-(1H-indol-5-yl)-methanone]
- inhibition at 40 µM (InhA; Table 6): 97%
